Where two headings read alike, the source gives them in different places.

The values that follow come from US20050266515A1, “Glyceraldehyde 3-phosphate dehydrogenase-S (GAPDHS), a glycolytic anzyme expressed only in male germ cells, is a target for male contraception” (The University of North Carolina at Chapel Hill, priority 2002, published 2005).

Type in all cases: biochemical
In assay [1] the target is T1, truncated form of human GAPDHS (Mus musculus, UniProt Q64467).
T1 construct: tGapdhs, amino acids 106-438; made in house; host or cells: E. coli K-12 strain DS112 (gapA-deficient)
T1 sequence (Q64467 108-440): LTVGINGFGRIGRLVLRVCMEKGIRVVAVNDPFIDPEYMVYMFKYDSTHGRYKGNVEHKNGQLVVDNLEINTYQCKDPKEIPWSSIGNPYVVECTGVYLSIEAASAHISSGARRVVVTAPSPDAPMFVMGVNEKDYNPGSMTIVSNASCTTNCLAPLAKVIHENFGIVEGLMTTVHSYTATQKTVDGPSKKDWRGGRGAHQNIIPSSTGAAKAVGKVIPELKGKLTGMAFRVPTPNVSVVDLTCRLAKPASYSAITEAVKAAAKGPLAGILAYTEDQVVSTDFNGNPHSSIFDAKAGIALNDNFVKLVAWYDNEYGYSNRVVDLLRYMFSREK
Description: Inhibition of dehydrogenase activity of recombinant truncated GAPDHS (NADH accumulation at 340 nm).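 Further: recombinant enzyme (1 µg) in glycine–phosphate–EDTA buffer pH 8.9, inhibitors tested from 1 µM to 3 mM, activity relative to DMSO-only controls taken as 100%.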

Assay [2] concerns truncated form of human GAPDHS. Described as above. The following applies: comparison of IC50 values of Tables 7, 9 and 11.
Assay [3] deals with T2, recombinant human GAPDH (Mus musculus, UniProt P16858).
T2 construct: made in house; host or cells: E. coli K-12 strain DS112 (gapA-deficient)
T2 sequence (P16858 whole entry): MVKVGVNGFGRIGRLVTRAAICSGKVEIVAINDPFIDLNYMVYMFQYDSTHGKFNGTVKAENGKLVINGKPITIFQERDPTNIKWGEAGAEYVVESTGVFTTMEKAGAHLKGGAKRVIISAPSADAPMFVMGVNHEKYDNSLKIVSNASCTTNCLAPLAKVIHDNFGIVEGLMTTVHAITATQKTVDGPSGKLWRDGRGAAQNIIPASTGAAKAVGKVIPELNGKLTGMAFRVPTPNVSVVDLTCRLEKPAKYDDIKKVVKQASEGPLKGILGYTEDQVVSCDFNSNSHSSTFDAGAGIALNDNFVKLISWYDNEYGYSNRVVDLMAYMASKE
Description: Inhibition of dehydrogenase activity of recombinant somatic GAPDH (NADH accumulation at 340 nm). The note with it: 1 hour preincubation at 4° C., 0.5 mM NAD, 0.5 mM glyceraldehyde-3-phosphate. The text has this:
In subsequent studies to test inhibitors identified in computer docking studies, recombinant mouse Gapdh and the truncated form of Gapdhs (tGapdhs, amino acids 106-438) were expressed in DS112 gapA-deficient E. coli strain K-12 (available from the Yale University E. coli Genetics Stock Center, New Haven, Conn., United States of America). The truncated Gapdhs lacks the proline-rich N-terminus, but contains all the amino acids required for enzyme activity. The recombinant proteins were purified and activities were determined with a standard enzyme assay (Schmalhausen et al., 1997). Using this assay, the dehydrogenase activity of Gapdh and tGapdhs was monitored at 340 nm by measuring the accumulation of NADH.
The reaction mixture (200 μl) contained 50 mM glycine, 50 mM potassium phosphate, 5 mM EDTA (pH 8.9), 1 μg of recombinant enzyme (Gapdh or tGapdhs), 0.5 mM NAD, and 0.5 mM glyceraldehyde-3-phosphate. Activities of Gapdh and tGapdh were compared in the presence of various concentrations of inhibitors. Compounds identified as potential inhibitors in modeling studies as described herein were obtained from Ryan Scientific (Mt. Pleasant, S.C., United States of America). Stocks for each compound were prepared by dissolving 5 mg in 50 μl of DMSO. These stocks were divided into 10 μl aliquots and frozen at −20° C.
To monitor inhibition, each compound (1 μM to 3 mM) was added to the above reaction mixture (without NAD and glyceraldehyde-3-phosphate) and incubated for 1 hour at 4° C. After the 1 hour incubation period, NAD and glyceraldehyde-3-phosphate were added to start the reaction. In each assay, controls containing equal amounts of DMSO were included to determine values for 100% activity. The IC50 for each compound was calculated as the concentration required to reduce dehydrogenase activity to 50% of the activity of control samples.

Assay [4] concerns the target T3, truncated Gapdhs (tGapdhs; amino acids 106-438 of mouse Gapdhs) (Mus musculus, UniProt Q64467).
T3 construct: containing amino acids 106-438 of mouse Gapdhs; GST (cleaved yes); made in house
The experiment in a line: Inhibition of recombinant tGapdhs by adenine nucleotides (NAD reduction at 340 nm, 96-well format). The following applies: for inhibition of tGapdhs: recombinant enzyme, result in words.

The target in assay [5] is T4, Recombinant mouse Gapdh (Mus musculus, UniProt P16858).
T4 construct: GST (cleaved yes); made in house
T4 sequence (P16858 whole entry): as above
The experiment in a line: Inhibition of recombinant Gapdh by adenine nucleotides (NAD reduction at 340 nm, 96-well format). The note with it: for inhibition of Gapdhs (the other recombinant enzyme beside tGapdhs): result in words.

Setting [6] is: Table 9, 1 hour preincubation at 4° C., 0.5 mM NAD, 0.5 mM glyceraldehyde-3-phosphate, read-out: IC50 GAPDHS.
[7] abbreviates: competitive inhibitors of NAD cofactor binding, read-out: calculated Ki for tGapdhs.
The mark [8] stands for this setting: competitive inhibitors of NAD cofactor binding, read-out: calculated Ki for Gapdh.
Where [9] appears, read: Table 7, 1 hour preincubation at 4° C., 0.5 mM NAD, 0.5 mM glyceraldehyde-3-phosphate, read-out: IC50 GAPDHS.
Where [10] appears, read: Table 11, 1 hour preincubation at 4° C., 0.5 mM NAD, 0.5 mM glyceraldehyde-3-phosphate, read-out: IC50 GAPDHS.

T3 sequence (Q64467 108-440): as the sequence (Q64467 108-440) above

Broadly, the IC50 is the concentration at which inhibition is half-maximal. With “3-(1H-Imidazolo-4-yl)-2-[3-(4-sulfamoyl-benzyl)-thioureido]-propionic acid [LT_00729760]”, in assay [1] (setting [6]), the IC50 amounted to 2000 µM.

As to “4-(1-Benzyl-IH-indol-3y1)-3,4-dihydro-benzo[4,5]imidazo[1,2-a][1,3,5]triazin-2-ylamine [Compound T0501_7933]”, the 50% inhibitory concentration (IC50) in assay [1] (setting [6]) is 10 to 25 µM; in assay [3] (Table 9), over 500 µM. The “selective inhibition: Gapdhs compared to Gapdh” value (from here on “selective inhibition: Gapdhs”) in assay [2] is reported as “greater inhibition of Gapdhs than Gapdh”.

Turning to “4-Amino-N-(4-methoxy-phenyl)-3-nitro-benzenesulfonamide-cyclohexyl-urea [Compound T0506_9350]”, in assay [3] (Table 9), the IC50 is over 1000 µM.

The term Ki denotes the dissociation constant of the complex between target and ligand, obtained from inhibition or displacement. As for `Nc1ncnc2c1ncn2[C@@H]1O[C@H](COP(=O)(O)OP(=O)(O)O)[C@@H](O)[C@H]1O` [ADP], the results for the Ki in assay [4] (setting [7]) and in assay [5] (setting [8]) were 3970 µM and 1790 µM, respectively. In addition, in assay [4], the “inhibition of tGapdhs” value is listed as “dose-dependent inhibition”. For the same compound, the “inhibition of Gapdhs (the other recombinant enzyme beside tGapdhs)” value (shortened to “inhibition of Gapdhs”) in assay [5] was “dose-dependent inhibition”.

For the compound `Nc1ncnc2c1ncn2[C@@H]1O[C@H](COP(=O)(O)O)[C@@H](O)[C@H]1O` [AMP], the Ki is 3130 µM in assay [4] (setting [7]) and 1610 µM in assay [5] (setting [8]). The “inhibition of tGapdhs” value in assay [4] is “dose-dependent inhibition”. Also, the “inhibition of Gapdhs” value in assay [5] is listed as “dose-dependent inhibition”.

For `Nc1ncnc2c1ncn2[C@@H]1O[C@H](COP(=O)(O)OP(=O)(O)OP(=O)(O)O)[C@@H](O)[C@H]1O` [ATP, adenosine triphosphate], the Ki is 6480 µM in assay [4] (setting [7]) and 1270 µM in assay [5] (setting [8]). For the same compound, the “inhibition of Gapdhs” value in assay [5] was “dose-dependent inhibition”.

Regarding `Clc1ccc(N=c2ssnc2Cl)c(Cl)c1` [Compound 11K_064, 2,4-dichloro-N-(4chloro-5H-1,2,3-dithiazol-5-yliden)aniline], the figures for the IC50 in assay [1] (setting [9]) and in assay [3] (Table 7) were 500 µM and 100 µM, respectively.

As to `Cc1ccc(S(=O)(=O)c2c(N)n(CC(O)c3ccc([N+](=O)[O-])cc3)c3nc4ccccc4nc23)cc1` (stereo not drawn) [Compound T0501_7749, 2-[2-Amino-3-(toluene-4-sulfonyl)-pyrrolo[2,3-b]quinoxalin-1-yl]-1-(4-nitro-phenyl)-ethanol], the IC50 in assay [1] (setting [9]) was 100 µM; in assay [3] (Table 7) it was over 1000 µM. In assay [2], the “selective inhibition: Gapdhs” value is “greater inhibition of Gapdhs than Gapdh”.

As to `OCc1nc2ccccc2[nH]1` [Compound T0504_1251, (1H-Benzoimidazol-2-yl)-methanol], in assay [1] (setting [9]), the IC50 was over 3000 µM.

As to `O=C(NNc1ccc(S(=O)(=O)Nc2ccccc2)cc1[N+](=O)[O-])Nc1cccc(C(F)(F)F)c1` [Compound T0506_1274, 2-[4-(anilinosulfonyl)-2-nitrophenyl]-N-[3-(trifluoromethyl)phenyl]hydrazinecarboxamide], the half-inhibitory concentration (IC50) in assay [1] (setting [6]) came to 1750 µM.

Regarding `C=Cn1cncc1C(=O)C(F)(F)F` [Compound T0507_5482, 2,2,2-Trifluoro-1-(3vinyl-3H-imidazol-4-yl)-ethanone], the IC50 in assay [1] (setting [9]) and in assay [3] (Table 7) was over 1000 µM each time.

Consider `O=C(COC(=O)CCc1c[nH]c2ccccc12)Nc1ccc(S(=O)(=O)N2CCOCC2)cc1` [Compound T0511_4909, 3-(1H-Indol-3-yl)-propionic acid [4-(morpholine-4-sulfonyl)-phenylcaramoyl]-methyl ester], for which the figures for the concentration for half-maximal inhibition (IC50) in assay [1] (setting [9]) and in assay [3] (Table 7) were 500 µM and over 1000 µM, respectively. In addition, in assay [2], the “selective inhibition: Gapdhs” value is recorded as “greater inhibition of Gapdhs than Gapdh”.

As to `CNc1cc([N+](=O)[O-])ccc1OC` [Compound T0512_4753, (2-Methoxy-5-nitro-phenyl)-methyl-amine], the IC50 in assay [1] (setting [10]) and in assay [3] (Table 11) was over 1000 µM throughout.

Consider `O=[N+]([O-])c1ccc2oc3ccccc3c2c1` [Compound T0515_4928, 2-Nitro-dibenzofuran], for which the IC50 in assay [1] (setting [10]) is 100 µM. The “selective inhibition: Gapdhs” value in assay [2] is “greater inhibition of Gapdhs than Gapdh”.

`CCOC(=O)Cc1nnc2c(Nc3ccc(OC)cc3)nc3nonc3n12` [LT00105955, [5-(4-Methoxy-phenylamino)-2-oxa-1,3,4,6,7,8a-hexaaza-as-indacen-8-yl]-acetic acid ethyl ester]: the IC50 in assay [1] (setting [6]) and in assay [3] (Table 9) was over 1000 µM throughout.

As to `C=CC(=O)NCNC(=O)C=C` [LT_00050115, N-(Acryloylamino-methyl)-acrylamide], the IC50 in assay [1] and in assay [3] (Table 11) was over 1000 µM throughout.

Regarding `CN(C)c1ccc(C(CC(=O)c2c(O)c3ccccc3n(C)c2=O)NCc2ccncc2)cc1` (stereo not drawn) [LT_00232244, 3-{3-(4-Dimethylamino-phenyl)-3-[(pyridine-4-ylmethyl)-amino]-propionyl}-4-hydroxy-1-methyl-1H-quinolin-2-one], the IC50 in assay [1] (setting [9]) is over 1000 µM; in assay [3] (Table 7), 350 µM.

In the case of `Nc1nonc1-c1nc2ccccc2n1CC(=O)N/N=C\c1cc2c(cc1[N+](=O)[O-])OCO2` [LT_00237350, [2-(4-Aminofurazan-3-yl)-benzoimidazol-1-yl]-acetic acid [1-(6-nitro-benzo[1,3]dioxol-5-yl)-meth-(Z)ylidene]-hydrazide], in assay [1] (setting [6]), the IC50 came to 2000 µM.

Turning to `CC1=NN(C(N)=N[N+](=O)[O-])C(=O)C1` [LT_00249157, 3-methyl-5-oxo-pyrazole-1-nitro-carboxamidine], the IC50 in assay [1] (setting [9]) worked out at 100 µM. For the same compound, the “selective inhibition: Gapdhs” value in assay [2] is “greater inhibition of Gapdhs than Gapdh”.

Take `O=C(CN1C(=O)c2ccccc2C1=O)Nc1cc(C(=O)O)cc(C(=O)O)c1` [LT_00379844, 5-[2-(1,3-Dioxo-1,3-dihydro-isoindol-2-yl)-acetylamino]-isophthalic acid]: the IC50 in assay [1] (setting [6]) is over 1000 µM.

Consider `COc1cc(C=NNC(=O)Cn2cnc3c(=O)n(C)c(=O)n(C)c32)cc([N+](=O)[O-])c1O` [LT_00444480, (1,3-Dimethyl-2,6-dioxo-1,2,3,6-tetrahydro-purin-9-yl)-acetic acid (4-hydroxy-3-methoxy-5-nitro-benzylidene)-hydrazide], for which the IC50 in assay [1] (setting [6]) and in assay [3] (Table 9) was 150 µM in each case.

In the case of `CC(CC(=O)Nc1ccc(Cl)c(Cl)c1)=NNC(=O)c1cc2ccccc2cc1O` [LT_00587256, N-(3,4-Dichloro-phenyl)-3-[(3-hydroxy-naphthalene-2-carbonyl)-hyrazono]-butyramide], the IC50 in assay [1] (setting [6]) came to 5000 µM.

On to `COc1cc(C=NNc2ccc([N+](=O)[O-])cc2[N+](=O)[O-])ccc1OCC(=O)Nc1ccc(C)c(C)c1` [LT_01178124, N-(3,4-Dimethyl-phenyl)-2-{4-[(2,4-dinitro-phenyl)-hydrazonomethyl]-2-methoxy}-acetamide], for which the “IC50 GAPDHS” value in assay [1] (Table 9, 1 hour preincubation at 4° C., 0.5 mM NAD, 0.5 mM glyceraldehyde-3-phosphate) is “not soluble”.

Regarding `O=c1ccn([C@@H]2O[C@H](COP(=O)(O)OP(=O)(O)OP(=O)(O)O)[C@@H](O)[C@H]2O)c(=O)[nH]1` [UTP], in assay [4], the “inhibition of tGapdhs” value is reported as “did not inhibit”. Also, in assay [5], the “inhibition of Gapdhs” value is reported as “did not inhibit”.

Turning to `Nc1ncnc2c1ncn2[C@@H]1O[C@H](CO)[C@@H](O)[C@H]1O` [adenosine], in assay [4], the “inhibition of tGapdhs” value was “did not inhibit”. In addition, the “inhibition of Gapdhs” value in assay [5] is “did not inhibit”.

In the case of `Nc1ncnc2c1ncn2[C@@H]1O[C@@H]2COP(=O)(O)O[C@H]2[C@H]1O` [cAMP, cyclic AMP], in assay [4], the inhibition constant (Ki) came to 3330 µM and the “inhibition of tGapdhs” value was “dose-dependent inhibition”. In assay [5], the Ki was 1500 µM and the “inhibition of Gapdhs” value is on record as “dose-dependent inhibition”.
